Reference: PubChem BioAssay AID179 (DTP/NCI, 2004)
Calls of active or inactive are those of the source.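 Rule for the calls: active = compounds giving half or more protection of infected cells from virus-caused growth loss, again on retest; inactive = the rest.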

System: CEM cells HIV-1 protection, formazan growth assay
Assay: NCI AIDS Antiviral Assay
Conditions: for IC50: measured here: growth of uninfected CEM cells
Summary of the method: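 Soluble formazan readout of cell growth; CEM cells ± HIV-1; 5 drug concs. ≥50% protection → retest; ≥50% again = moderately active; reproducible 100% = confirmed active.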

SMILES	outcome	EC50 [µM]	IC50 [µM]
CC1C(NNc2ccccc2)Oc2cc3c(cc2C1c1ccccc1O)OCO3 (configuration not stated)	inactive		
CC1=C(C(=O)NNC(=O)C[n+]2ccccc2)CC(C(=O)NNC(=O)C[n+]2ccccc2)=C(C)N1		> 200	> 200
CCCCCC=C(c1cc(I)c(OC)c(C(=O)OC)c1)c1cc(I)c(OC)c(C(=O)OC)c1		> 200	166
Brc1cccc(C=NC23CC4CC(CC(C4)C2)C3)c1		> 16.2	> 16.2
CC(C)OC(=O)c1ccc(NCC2=CC(=O)C=CC2=O)cc1		> 200	7.76
C=CCC1(O)C(=O)OC2C(O)COC21O (configuration not stated)		> 200	> 200
CC(C)(C)c1cc(C(=O)/C=C/c2ccc(C(=O)O)cc2)cc(C(C)(C)C)c1		> 15.1	8.32
COc1ccc2c3c1OC1C(OC)(OC)CC4(C=C2)CN(C)CCC314 (configuration not stated)	inactive		
CCOC(=O)C#CC(=O)OCC		> 200	15.1
CN(C)C(C(N)=O)c1ccc(Cl)cc1 (configuration not stated)	inactive		
Oc1ccc(Nc2nc(Cl)c3[nH]cnc3n2)cc1		> 200	107
CCN(CC)CCOCCn1c2c(c3ccccc31)CCCC2		> 200	30.9
CCN(CC)c1ccc2nc3c4ccccc4c(=O)cc-3n(-c3ccccc3)c2c1		> 200	4.57
Cn1[nH]cc2ccc3nc4ccccc4c(=O)c3c21	inactive		
CC(=O)OCC(OC(C)=O)C(Cl)CCl (configuration not stated)		> 200	> 200
OC(c1cccs1)c1cc2ccccc2s1 (configuration not stated)		> 200	117
Nc1nc(NC(=O)C2=NS(=O)(=O)c3cc(S(N)(=O)=O)c(Cl)cc3N2)n[nH]1		331	380
CC(C)Oc1c(N(Cc2ccccc2)c2ccccc2C2SCCCS2)c(=O)c1=O		> 200	1.17
COc1ccc(CSC2=C(C#N)C(=O)NC3(CCCCC3)S2)cc1		> 200	110
O=c1c2cc(-c3ccccc3)cnc2sn1-c1ccc(Oc2ccccc2)cc1		69.2	110
O=c1c2c3c(sc2nc2n1N=CN(c1ccc(F)cc1)C2)CCCC3		> 200	> 200
O=C(c1cccs1)N(C(=S)N1CCN(c2ccccc2)CC1)c1ccccc1		> 12.9	> 12.9
Cc1c(C#N)c(N)n(C2OCC(O)C(O)C2O)c(=S)c1C#N (configuration not stated)	inactive		

SMILES	outcome	EC50 [µM]	IC50 [µM]
CC(=O)/C(C=Nc1c(C)n(C)n(-c2ccccc2)c1=O)=C(/C)O		> 200	> 200
COc1nc2ncc([C@@H](OC(C)=O)[C@@H](COC(C)=O)OC(C)=O)nc2c(=O)[nH]1		> 200	> 200
CC(C)Oc1nc(N2CCNCC2)nc2c1CCCC2	inactive		
CC1(C)CC(O)C2=C(O1)C(=O)c1ncccc1C2=O (configuration not stated)	inactive		
NC1(CSS(=O)(=O)O)CCN1 (configuration not stated)		> 200	> 200
CCOC(=O)[C@@]12C[C@@H](C#N)C1N(Cc1ccccc1)[C@@H]1ON=C(c3ccc(Cl)cc3)[C@@H]1C2 (some centres not stated)	inactive		
CC(=O)Oc1cccc2c1C(=O)CCCC2		> 200	> 200
Cc1ccc(CN=C(N)CSS(=O)(=O)O)cc1C		> 200	> 100
O=c1cnn2c(n1)OC1C(O)C(CO)OC12 (configuration not stated)		> 200	19.1
CC(=O)c1ccc(NCc2cc(O)ccc2O)cc1		> 200	10.7
Cn1c(=O)cc(NNc2ccc(Br)cc2)[nH]c1=O		> 200	6.17
COc1ccc(-n2sc3ncc([N+](=O)[O-])cc3c2=O)cc1		9.33	> 200
BrCC[P+](c1ccccc1)(c1ccccc1)c1ccccc1		> 200	3.98
O=c1oc2ccccc2c(O)c1C(c1ccc2c(c1)Cc1ccccc1-2)c1c(O)c2ccccc2oc1=O		> 200	46.8
Cc1ccc2c(c1)nc(-c1ccccn1)n2CCc1ccccn1		> 347	83.2
CCN(CC)CCNc1ccc2ncn3c4c(OC)ccc(=O)c4c(O)c1c23		> 50.1	0.0219
CCN(CC)CCOc1ccc(/C=C(\C#N)c2ccc(N(CC)CC)cc2)cc1		> 200	0.891
O=S(=O)(CC#CCO)c1cccc2ccccc12	inactive		
CC(C)N(C(=O)C12C3C4C5(C#N)C3C1(C#N)C5C42I)C(C)C (configuration not stated)		> 617	316
COc1cccc(SSc2cccc(OC)c2OC)c1OC		> 200	16.6
O=C1C=CC(=O)c2c1ccc1c3ccccc3n(CCCCCCCCCCCCn3c4ccccc4c4ccc5c(c43)C(=O)C=CC5=O)c21		> 100	72.4
COc1cc2c(c(OC)c1OC)C(=O)C1C2N1C(=O)CCCCl (configuration not stated)		> 200	> 200
COc1cc2c(cc1O)Cc1c-2[n+](C)cc2cc(OC)c(OC)cc12		> 347	1.62

SMILES	outcome	EC50 [µM]	IC50 [µM]
CC(C)(C)[Si](C)(C)OC1CCOC1(O)c1ccccn1 (configuration not stated)		> 200	66.1
O=C(O)c1cc(O)c2c(c1)Cc1cccc(O)c1C2=O		> 200	28.8
O=[N+]([O-])c1cccc2nccc(NCCCO)c12		> 200	6.92
C[N+]1=C(c2cccnc2/C=N/O)OCC1(C)C		> 692	417
CC(=O)Nc1ccc(SS(=O)(=O)c2ccc(NC(C)=O)cc2)cc1		> 490	204
CCOC(=O)/C(C(N)=O)=C(/O)c1cnccn1		> 200	> 200
COc1cc(C(=O)N2CCOCC2)cc(OC)c1OC		> 200	> 200
[N-]=[N+]=NC12CC3CC(CC(C3)C1)C2		> 380	> 380
CN(C)c1ccc(/C=C(\NC(=O)c2ccccc2)C2=NC(CCC(=O)O)C(=O)O2)cc1 (configuration not stated)		> 50.1	> 50.1
COC(=O)c1c(C)cccc1C1CN=NC12Cc1cccc(C)c1C2=O (configuration not stated)		> 126	81.3
O=S1(=O)CS(=O)(=O)OCCCCCO1		> 537	> 537
O=c1cc(-c2ccccc2)[nH]c(=S)[nH]1		> 200	> 200
O=C1/C(=C/c2ccccc2)CCC/C1=C\c1ccc(O)c(CN2CCCCC2)c1		> 200	1.17
O=[N+]([O-])C(/C=C(\Cl)[N+](=O)[O-])=C(N1CCOCC1)N1CCOCC1		> 200	110
OC1CC=C2CCN3Cc4cc5c(cc4C1C23)OCO5 (configuration not stated)	inactive		
CCCCCCCCCCn1nnc2c(=O)[nH]c(N)nc21		> 200	52.5
Cc1cccc(C(O)c2ccccn2)c1O (configuration not stated)		> 200	> 200
Nc1nnnn1CCCl		> 200	> 200
CN(C)c1nc(N(C)C)nc(N(C)C23CC4CC(CC(C4)C2)C3)n1		> 200	64.6
O=C(CO)CC(=O)C(=O)Nc1cccc(C(F)(F)F)c1	inactive		
COC(=O)CCc1ccc2c(c1)C(=O)CC2		> 200	> 200
CC(C)(O)[C@H]1OC2CC[C@@]3(C)C(O)(CC[C@H]4Cc5c([nH]c6ccccc56)C43C)C2=CC1=O (some centres not stated)		> 200	13.8
CC(C)=CC(=O)CC(=O)C(=O)NCCNC(=O)C(=O)CC(=O)C=C(C)C		> 2.09	> 2.09
